Results published in patent publication US11116210B2 (priority 2017, dated 2021).

System: Female mosquitoes, Aedes aegypti
Experiment: Y-tube olfactometer insect repellency assay
Format: in vivo
Parameters: key to Significance (attraction vs Control): NS—not significant; *, ** - significantly different; *, ** - significantly different
Details: 98%

Structure (SMILES): CCN(CC)C(=O)c1cccc(C)c1 [DEET, N,N-diethyl-3-methylbenzamide]
- insect repellency, in words: strongest repellency
- Significance (attraction vs Control) (vs mineral oil control): **
